# In US11883503B2, “Methods and compositions for cancer treatment” (DINGFU BIOTARGET CO., LTD., priority 2017, dated 2024):
# Test system: peripheral blood lymphocytes
# Assay: Flow cytometry of CD4+ and CD8+ lymphocytes in peripheral blood after FTY720
# Format: in vivo, mice
# Conditions: 3 days after first administration of FTY720
# Description: FTY720 (SIGMA, Cat #SML0700-5MG) was used to test activation of T cells in the tumor microenvironment. FTY720 is a lipophilic immunomodulatory sphingosine-1-phosphate analog, it induces severe peripheral blood lymphopenia and sustains lymphopenia in mice by preventing lymphocytes to egress from lymph organs through agonist-induced receptor internalization.
# B16-EGFR-SIY cells were inoculated s.c. into the both flanks of mice. […] Then 3 days later, after the first administration of depletion antibodies or FTY720, lymphocytes suspensions were prepared from their peripheral blood, and labeled with APC-anti-mCD4 (clone GK1.5, BioLegend), FITC-anti-mCD8a (clone 53-6.7, BioLegend), FITC-anti-mCD3 (clone 17A2, BioLegend), or APC-anti-mNK1.1 (clone PK136, BioLegend). Tumor volumes on the both flanks were measured and monitored. Samples were analyzed on a Life Attune Flow Cytometer (Life), and data were analyzed. Representative data is shown in FIG. 6C-6F, based on results obtained from three experiments conducted with 5-6 mice per group.
structure (smiles),measurement,value
CCCCCCCCc1ccc(CCC(N)(CO)CO)cc1 [FTY720],relative number of CD4+ T cells in peripheral blood,~1.5%
same,relative number of CD8+ T cells in peripheral blood,about 0.5%
